PMC7605239 (Cell, 2020)
Read-outs that look alike come from different tables or passages of the source.

Columns and labels:
[1] = molecular target: T1, CR518 (chemotactile receptor 518) (Octopus bimaculoides, UniProt A0A0L8FVQ9); test: whole-cell patch clamp dose-response; format: cell-based
T1 sequence (A0A0L8FVQ9 21-399): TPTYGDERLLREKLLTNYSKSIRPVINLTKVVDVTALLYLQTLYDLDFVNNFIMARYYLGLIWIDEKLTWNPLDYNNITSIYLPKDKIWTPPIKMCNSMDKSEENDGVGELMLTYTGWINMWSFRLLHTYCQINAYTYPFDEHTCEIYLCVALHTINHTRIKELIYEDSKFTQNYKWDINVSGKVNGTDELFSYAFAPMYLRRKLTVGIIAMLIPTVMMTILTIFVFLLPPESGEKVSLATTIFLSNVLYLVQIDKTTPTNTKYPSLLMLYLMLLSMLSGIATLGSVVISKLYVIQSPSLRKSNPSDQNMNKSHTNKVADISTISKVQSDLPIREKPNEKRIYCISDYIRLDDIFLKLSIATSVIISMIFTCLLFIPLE

[2] = tested on: CR840 (chemotactile receptor 840); test: whole-cell patch clamp dose-response; format: cell-based, Octopus bimaculoides
[3] = molecular target: T1, CR518 (chemotactile receptor 518); test: whole-cell patch clamp dose-response; format: cell-based; remark: listed apart in the source
[4] = molecular target: T1, CR518 (chemotactile receptor 518); test: whole-cell patch clamp screen; format: cell-based

| SMILES | EC50 [1] [µM] | EC50 [3] [µM] | further results |
| --- | --- | --- | --- |
| C=C(C)[C@@H]1CCC2=CC(=O)C[C@@H](C)[C@]2(C)C1 [nootkatone] | 24.7 | – | – |
| CCN(CC)CCCC(C)Nc1ccnc2cc(Cl)ccc12 (stereo not drawn) [chloroquine] | – | 92.3 | EC50 [2]: 10.3 µM |
| C=C1CCC[C@]2(C)Cc3occ(C)c3C[C@@H]12 [atractylon] | – | 29.4 | – |
| Cc1ccc(C(C)C)cc1O [carvacrol] | 204 | – | – |
| CC1(C)CCC[C@]2(C)[C@@H](C=O)C(C=O)=CC[C@@H]12 [polygodial] | – | – | whole-cell patch clamp screen (1 mM) [4]: CR518 was potently activated by terpenoids, including the physiologically-relevant sesquiterpene polygodial and furanosesquiterpene atractylon |
